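Grown in 96-well plates, cells were treated for 48 hours with each compound at five concentrations. Insufficient inhibition: endpoint recorded as highest concentration tested. Abbreviation: GI50, concentration required for 50% inhibition of growth.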 The source made the active and inactive calls. No stated cut-off is given here; in the data, active = GI50 up to about 1.1 µM and inactive = higher.
Experiments:
Experiment in all cases: growth of human tumour cells (NCI), 48 h
786-0 = test system: 786-0
A498 = test system: A498
A549 = test system: A549
ACHN = test system: ACHN
HOP-62 = test system: HOP-62
IGROV-1 = test system: IGROV-1
M14 = test system: M14
MCF7 = test system: MCF7
NCI-H460 = test system: NCI-H460
NCI-H522 = test system: NCI-H522
NCI/ADR-RES = test system: NCI/ADR-RES
RPMI-8226 = test system: RPMI-8226
SNB-75 = test system: SNB-75
SR = test system: SR
UACC-257 = test system: UACC-257
UO-31 = test system: UO-31
Malme-3M = test system: Malme-3M
SK-OV-3 = test system: SK-OV-3
TK-10 = test system: TK-10

Measured: GI50

COc1nc2c(c(=O)[nH]1)N=C(c1ccc(Cl)cc1)CC(c1ccccc1)N2 (stereo not given)
inactive: 786-0 37.6 µM | A498 33.3 µM | A549 33.4 µM | ACHN 23.1 µM | HOP-62 53.6 µM | IGROV-1 31.9 µM | M14 17.3 µM | MCF7 39 µM | NCI-H460 27.1 µM | NCI-H522 20.3 µM | NCI/ADR-RES 23.8 µM | RPMI-8226 28.4 µM | SNB-75 20.8 µM | SR 61.4 µM | UACC-257 36.8 µM | UO-31 29.6 µM

CC1(C)OCN(c2ccc(N3CCOCC3)cc2)Cn2c1nc1ccccc12
inactive: 786-0 > 100 µM | A498 > 100 µM | A549 > 100 µM | ACHN 64 µM | HOP-62 > 100 µM | IGROV-1 > 100 µM | M14 > 100 µM | Malme-3M > 100 µM | NCI-H460 > 100 µM | NCI-H522 > 100 µM | RPMI-8226 27.9 µM | SK-OV-3 > 100 µM | SNB-75 > 100 µM | SR 31.2 µM | TK-10 > 100 µM | UACC-257 46.1 µM | UO-31 > 100 µM

C/C(CN1C(=O)c2ccccc2C1=O)=N\NS(=O)(=O)c1ccc(Cl)cc1
inactive: 786-0 > 100 µM | A498 > 100 µM | A549 > 100 µM | ACHN > 100 µM | HOP-62 > 100 µM | IGROV-1 > 100 µM | M14 > 100 µM | Malme-3M > 100 µM | NCI-H460 > 100 µM | NCI-H522 > 100 µM | RPMI-8226 > 100 µM | SNB-75 > 100 µM | SR > 100 µM | TK-10 > 100 µM | UACC-257 > 100 µM | UO-31 > 100 µM

CC(=O)OCC1OC(n2c(-c3ccccc3)c(/N=N/c3ccc(C)cc3)c(C)c(C#N)c2=S)C(OC(C)=O)C(OC(C)=O)C1OC(C)=O (stereo not given)
inactive: 786-0 3.55 µM | A498 2.78 µM | A549 9.62 µM | ACHN > 100 µM | HOP-62 18.7 µM | M14 3.16 µM | MCF7 6.47 µM | Malme-3M > 10 µM | NCI-H460 10.8 µM | NCI/ADR-RES 7.35 µM | RPMI-8226 8 µM | SR 8.99 µM | TK-10 23.6 µM | UACC-257 32.1 µM | UO-31 > 10 µM

FC(F)(F)c1nc2ccc3[nH]c4c(-c5ccccc5)nccc4c3c2[nH]1
inactive: 786-0 > 100 µM | A498 > 100 µM | A549 > 100 µM | ACHN > 100 µM | HOP-62 > 100 µM | IGROV-1 > 100 µM | M14 > 100 µM | Malme-3M > 100 µM | NCI-H460 > 80 µM | NCI-H522 > 83.8 µM | RPMI-8226 > 42.9 µM | SK-OV-3 > 100 µM | SNB-75 > 100 µM | SR 17.9 µM | TK-10 > 100 µM | UACC-257 > 100 µM | UO-31 > 100 µM

CC1(Cl)C(=O)NC(=O)N([C@H]2C[C@H](O)[C@@H](CO)O2)C1N=[N+]=[N-] (stereo not given in full)
inactive: 786-0 > 100 µM | A498 > 100 µM | A549 > 100 µM | ACHN > 100 µM | HOP-62 > 100 µM | IGROV-1 > 100 µM | M14 > 100 µM | Malme-3M > 100 µM | NCI-H460 > 100 µM | NCI-H522 > 100 µM | RPMI-8226 > 100 µM | SK-OV-3 > 100 µM | SNB-75 > 100 µM | SR > 100 µM | TK-10 > 100 µM | UACC-257 > 100 µM | UO-31 > 100 µM

C/C=C/c1c(O)c(=O)c2c(OC)cc(OC)c3c4c(OC)cc(OC)c5c(=O)c(O)c(/C=C/C)c(c1c23)c54
inactive: 786-0 14.9 µM | A498 32.6 µM | A549 5.97 µM | ACHN 2.86 µM | HOP-62 16.3 µM | IGROV-1 5.96 µM | M14 9.42 µM | MCF7 14.5 µM | Malme-3M 6.25 µM | NCI-H460 9.48 µM | NCI-H522 4.71 µM | NCI/ADR-RES 14.5 µM | RPMI-8226 6.92 µM | SK-OV-3 39.9 µM | SNB-75 12.2 µM | SR > 100 µM | TK-10 > 10 µM | UACC-257 16.5 µM | UO-31 1.64 µM

CCN(CC)CCC(=O)Nc1ccc2c(c1)C(=O)c1ccc(NC(=O)CCN(CC)CC)cc1C2=O
inactive: 786-0 2.15 µM | A498 5.79 µM | A549 5.18 µM | ACHN 4.07 µM | HOP-62 5.37 µM | IGROV-1 4.06 µM | M14 13.8 µM | NCI-H460 1.38 µM | NCI-H522 11.2 µM | RPMI-8226 4.17 µM | SK-OV-3 9.73 µM | SNB-75 14.2 µM | SR 3.37 µM | TK-10 5.01 µM | UACC-257 14.8 µM | UO-31 84.1 µM

Cc1ccc(NC(=O)C(=O)C2NC(=S)NC2=O)c([N+](=O)[O-])c1 (stereo not given)
inactive: 786-0 > 100 µM | A498 > 100 µM | A549 > 100 µM | ACHN > 100 µM | HOP-62 > 100 µM | IGROV-1 > 100 µM | M14 > 100 µM | Malme-3M > 100 µM | NCI-H460 > 100 µM | NCI-H522 > 100 µM | RPMI-8226 > 100 µM | SK-OV-3 > 100 µM | SNB-75 > 100 µM | SR > 100 µM | TK-10 > 100 µM | UACC-257 > 100 µM | UO-31 > 100 µM

NS(=O)(=O)c1ccc(NC(=O)c2cccc3c(=O)c4ccccc4[nH]c23)cc1
inactive: 786-0 > 100 µM | A498 51.3 µM | A549 > 100 µM | ACHN > 100 µM | HOP-62 39.8 µM | IGROV-1 78.5 µM | M14 > 100 µM | Malme-3M 24.7 µM | NCI-H460 > 100 µM | NCI-H522 3.8 µM | RPMI-8226 28.4 µM | SK-OV-3 19.9 µM | SNB-75 15.3 µM | SR 22 µM | TK-10 89.1 µM | UACC-257 > 100 µM | UO-31 18.6 µM

O=[N+]([O-])c1nccn1COCCI
inactive: 786-0 > 100 µM | A549 > 100 µM | ACHN > 100 µM | HOP-62 > 100 µM | IGROV-1 > 100 µM | M14 > 100 µM | Malme-3M > 100 µM | NCI-H460 > 100 µM | NCI-H522 > 100 µM | RPMI-8226 > 100 µM | SK-OV-3 > 100 µM | SNB-75 > 100 µM | SR > 100 µM | TK-10 > 100 µM | UACC-257 > 100 µM | UO-31 > 100 µM

O=C(/C(=C/c1ccccc1)c1ccccc1)N1c2ccccc2CC1c1c[nH]c2ccccc12 (stereo not given)
inactive: 786-0 > 100 µM | A498 > 100 µM | A549 11 µM | ACHN 16.9 µM | HOP-62 > 100 µM | IGROV-1 > 100 µM | M14 9.18 µM | Malme-3M 28.5 µM | NCI-H460 7.48 µM | NCI-H522 7.8 µM | RPMI-8226 15.6 µM | SK-OV-3 > 100 µM | SNB-75 > 100 µM | SR > 100 µM | TK-10 45.7 µM | UACC-257 54.5 µM | UO-31 5.11 µM

Reference: ChEMBL document CHEMBL1201862, “PubChem BioAssay data set” (2004)
